Measured values as given in ChEMBL document CHEMBL1201862, “PubChem BioAssay data set” (2004).
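Briefly, cells in 96-well plates were exposed to five compound concentrations for 48 h, and endpoints were estimated by linear interpolation. GI50 marks 50% less growth.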 Active and inactive are the calls of the source. Rule as the data show it: active = GI50 up to about 1.1 µM and inactive = higher.

Experiments:
Assay in all cases: NCI tumour cell line growth inhibition, 48 h
DLD-1 = tested on: DLD-1
DMS-114 = tested on: DMS-114
SNB-78 = tested on: SNB-78
RXF 631 = tested on: RXF 631
XF498 = tested on: XF498
KM-20L2 = tested on: KM-20L2
BT-549 = tested on: BT-549
MDA-N = tested on: MDA-N
PC-3 = tested on: PC-3

Measured: GI50

CS(=O)(=O)c1nc(Cl)c(Cl)c(C#N)c1Cl
inactive: DLD-1 1.59 µM | DMS-114 5.32 µM | SNB-78 9.91 µM | RXF 631 20.2 µM | XF498 3.09 µM | KM-20L2 6.03 µM | BT-549 1.9 µM | MDA-N 1.83 µM | PC-3 5.35 µM

CCCC/C=C1\CCC(CN2CCCCC2)C1=O (stereo not drawn)
inactive: DLD-1 1.76 µM | DMS-114 6.65 µM | SNB-78 4.2 µM | RXF 631 8.11 µM | XF498 2.3 µM | KM-20L2 15.2 µM | BT-549 > 100 µM | MDA-N > 100 µM | PC-3 > 100 µM
